Reference: the supplement of paper PMC10307832

Legend:
Experiment in all cases: relative viability (nuclei count vs DMSO), 5 days (fraction); higher = more cells survive
[1] = compound: CC1CC(=O)N(C2=CN=C(N=C2N1C3CCCC3)NC4=C(C=C(C=C4)C(=O)NC5CCN(CC5)C)OC)C [NPK76-II-72-1] + Nc1ncn([C@H]2C[C@H](O)[C@@H](CO)O2)c(=O)n1 [Decitabine] (partner 2 µM)
Procedure, shortened: (§1)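 For relative viability, nuclei counts in treated wells were divided by those in vehicle wells. Lung cancer cell lines had been pin-tool dosed in 1536-well plates the day after seeding and cultured for 5 days, then fixed and stained in one step (final 0.05% Triton X-100, 1% formaldehyde, 1 ug/ml Hoechst) and imaged at 4×. Doses were one drug alone or a fixed anchor-drug dose plus five library-drug doses (not always all listed) in √10 steps, and values are duplicate-plate medians.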

BI-2536 + OSI-027 = compound: CC[C@@H]1C(=O)N(C)c2cnc(Nc3ccc(C(=O)NC4CCN(C)CC4)cc3OC)nc2N1C1CCCC1 [BI-2536] + COc1cccc2cc(-c3nc([C@H]4CC[C@H](C(=O)O)CC4)n4ncnc(N)c34)[nH]c12 [OSI-027] (partner 0.5 µM)
Procedure, shortened: as §1

NPK76-II-72-1 + OSI-027 = compound: CC1CC(=O)N(C2=CN=C(N=C2N1C3CCCC3)NC4=C(C=C(C=C4)C(=O)NC5CCN(CC5)C)OC)C [NPK76-II-72-1] + COc1cccc2cc(-c3nc([C@H]4CC[C@H](C(=O)O)CC4)n4ncnc(N)c34)[nH]c12 [OSI-027] (partner 0.5 µM)
Procedure, shortened: as §1

[2] = compound: CC1CC(=O)N(C2=CN=C(N=C2N1C3CCCC3)NC4=C(C=C(C=C4)C(=O)NC5CCN(CC5)C)OC)C [NPK76-II-72-1] + C[C@@H](Oc1cc(-c2cnn(C3CCNCC3)c2)cnc1N)c1c(Cl)ccc(F)c1Cl [Crizotinib] (partner 1 µM)
Procedure, shortened: as §1

Cell Line | relative viability ([1]; first compound 0.01 µM) | relative viability ([1]; first compound 0.03162 µM) | relative viability ([1]; first compound 0.1 µM) | relative viability ([1]; first compound 0.3162 µM) | relative viability ([1]; first compound 1 µM) | relative viability (BI-2536 + OSI-027; first compound 0.01 µM) | relative viability (BI-2536 + OSI-027; first compound 0.03162 µM) | relative viability (BI-2536 + OSI-027; first compound 0.1 µM) | relative viability (BI-2536 + OSI-027; first compound 0.3162 µM) | relative viability (BI-2536 + OSI-027; first compound 1 µM) | relative viability (NPK76-II-72-1 + OSI-027; first compound 0.01 µM) | relative viability (NPK76-II-72-1 + OSI-027; first compound 0.03162 µM) | relative viability (NPK76-II-72-1 + OSI-027; first compound 0.1 µM) | relative viability (NPK76-II-72-1 + OSI-027; first compound 0.3162 µM) | relative viability (NPK76-II-72-1 + OSI-027; first compound 1 µM) | relative viability ([2]; first compound 0.01 µM) | relative viability ([2]; first compound 0.03162 µM) | relative viability ([2]; first compound 0.1 µM) | relative viability ([2]; first compound 0.3162 µM) | relative viability ([2]; first compound 1 µM)
COR-L 105 | 0.622 | 0.65 | 0.448 | 0.616 | 0.69 | 0.69 | 0.596 | 0.35 | 0.254 | 0.214 | 0.644 | 0.724 | 0.718 | 0.609 | 1.09 | 0.709 | 0.899 | 0.643 | 0.61 | 0.979
RERF-LC-KJ | 0.783 | 0.762 | 0.82 | 0.617 | 0.699 | 0.64 | 0.361 | 0.184 | 0.188 | 0.198 | 0.63 | 0.636 | 0.651 | 0.525 | 0.628 | 0.808 | 0.644 | 0.771 | 0.728 | 0.868
LXF-289 | 0.345 | 0.374 | 0.364 | 0.383 | 0.357 | 0.844 | 0.687 | 0.181 | 0.0418 | 0.0509 | 0.704 | 0.849 | 0.684 | 0.763 | 0.783 | 0.829 | 0.84 | 0.823 | 0.801 | 0.828
PC-14 | 0.206 | 0.286 | 0.226 | 0.259 | 0.222 | 0.906 | 0.546 | 0.111 | 0.032 | 0.0346 | 0.778 | 0.935 | 0.981 | 0.667 | 1.08 | 0.872 | 0.944 | 0.904 | 0.809 | 1.03
NCI-H650 | 0.316 | 0.33 | 0.358 | 0.311 | 0.299 | 0.551 | 0.471 | 0.351 | 0.19 | 0.144 | 0.512 | 0.565 | 0.515 | 0.49 | 0.623 | 0.799 | 0.865 | 0.629 |  | 0.825
NCI-H1666 | 0.809 | 0.755 | 0.705 | 0.713 | 0.733 | 0.881 | 0.842 | 0.686 | 0.378 | 0.311 | 0.802 | 0.871 | 0.82 | 0.777 | 0.975 | 0.855 | 1.03 | 0.92 | 0.917 | 1.09
NCI-H2085 | 0.543 | 0.519 | 0.517 | 0.472 | 0.611 | 0.833 | 0.602 | 0.282 | 0.153 | 0.272 | 0.577 | 0.773 | 0.68 | 0.644 | 0.771 | 0.864 | 0.962 | 1.03 | 0.778 | 1.01
NCI-H1734 | 0.49 | 0.456 | 0.479 | 0.479 | 0.525 | 0.57 | 0.494 | 0.206 | 0.179 | 0.19 | 0.495 | 0.625 | 0.64 | 0.589 | 0.628 | 0.703 | 0.666 | 0.727 | 0.642 | 0.736
NCI-H2126 | 0.57 | 0.554 | 0.569 | 0.516 | 0.538 | 0.832 | 0.641 | 0.472 | 0.276 | 0.218 | 0.716 | 0.734 | 0.678 | 0.738 | 0.796 | 1.02 | 1.07 | 0.965 | 1.01 | 1.06
EMC-BAC-2 | 0.978 | 1.01 | 0.986 | 0.969 | 1.08 | 0.381 | 0.358 | 0.249 | 0.193 | 0.184 | 0.372 | 0.351 | 0.391 | 0.361 | 0.415 | 0.765 | 0.817 | 0.658 | 0.783 | 0.823
NCI-H1993 | 0.604 | 0.624 | 0.61 | 0.474 | 0.678 | 0.521 | 0.481 | 0.519 | 0.484 | 0.453 | 0.532 | 0.534 | 0.51 | 0.528 | 0.549 | 0.912 | 0.839 | 0.791 | 0.722 | 0.977
NCI-H520 | 0.455 | 0.575 | 0.589 | 0.496 | 0.586 | 0.277 | 0.289 | 0.195 | 0.292 | 0.2 | 0.358 | 0.265 | 0.238 | 0.257 | 0.305 | 0.713 | 0.914 | 0.716 | 0.75 | 0.751
NCI-H647 | 0.379 | 0.364 | 0.418 | 0.367 | 0.454 | 0.814 | 0.807 | 0.529 | 0.0918 | 0.0985 | 0.618 | 0.626 | 0.526 | 0.578 | 0.627 | 1.06 | 1.15 |  | 0.966 | 1.06
NCI-H1792 |  | 0.683 | 0.42 | 0.534 | 0.515 | 0.818 | 0.758 | 0.678 | 0.591 | 0.395 | 0.701 |  | 0.734 | 0.753 | 0.802 | 1.05 | 0.817 | 0.968 | 1 | 1.07
SK-LU-1 | 0.626 | 0.63 | 0.64 | 0.582 | 0.615 | 0.341 | 0.278 | 0.198 | 0.172 | 0.146 | 0.321 | 0.355 | 0.368 | 0.361 | 0.406 | 0.812 | 1.07 | 0.93 | 0.859 | 0.981
